Reference: patent US10385031B2, “Substituted piperazines as selective HDAC1,2 inhibitors” (Regenacy Pharmaceuticals, LLC, priority 2016, dated 2019)

Legend:
[1] = Rat pharmacokinetics, cassette dosing (IV and PO); assay type: in vivo; conditions: male SD rats; for bioavailability / IV clearance / AUC / Cmax / half-life: rat; for bioavailability: 5 mg/kg; for half-life: read-out: PO T½ (converted)
Experimental: Male SD rats were fasted overnight. Compounds of the invention were dissolved in dimethyl acetamide at 10 times the final concentration, then Solutol HS 15 (BASF) was added to a final concentration of 10%. Finally 80% saline was added and vortexed to achieve a clear solution. For the IV dosing three animals were injected via the foot dorsal vein with 1 mg/kg compound. For the PO dosing 5 mg/kg of compound was delivered by oral gavage. Blood was collected via the tail vein into K2EDTA tubes at 5 minutes, 15 minutes, 30 minutes, 1 hour, 2 hours, 4 hours, 8 hours and 24 hours after dosing. The blood was centrifuged at 2000 g for 5 minutes at 4° C. to obtain plasma. The plasma was extracted with acetonitrile and the level of compound was analyzed by LC/MS/MS. The level of compound in plasma was calculated from a standard curve in rat plasma. The IV clearance (L/h/kg) and area under the curve (h*ng/mL) were calculated using WinNonLin software. The dose adjusted area under the curve for the IV and oral dosing were used to calculate the oral bioavailability.
Pharmacokinetic properties were assessed in a rat cassette dosing experiment. The IV clearance (IV Clr.) is in units of L/hr/kg. The oral maximum plasma concentration (PO Cmax) is in units of ng/ml. The oral plasma half-life (PO T½) is in units of hours. The oral area under the curve (PO AUC) is in units of hours*ng/ml. The fraction absorbed by the oral route (F %) is a percentage of the oral area under the curve to the IV area under the curve, dose adjusted.

[2] = tested on: CYP1A2, CYP2C9, CYP2C19, CYP3A4, CYP2D6; assay: Cyp inhibition in human liver microsomes (all isozymes); assay type: in vitro ADME
Experimental: For Cyp inhibition, human liver microsomes from BD Gentest were incubated with Compound 028 or Compound 032 (10, 3.33, 1.11, 0.37, 0.12, 0.04, 0.01 μM) and substrate (CYP1A2: Phenacetin at 30 μM; CYP2C9: Diclofenac at 10 μM; CYP2C19: S-Mephenytoin at 35 μM; CYP3A4: Midazolam at 5 μM and Testosterone at 80 μM; CYP2D6: Bufuralol at 10 μM) for the following incubation times: CYP1A2, 2C9, 2D6: 10 minutes, 37° C.; CYP2C19: 45 minutes, 37° C.; CYP3A4: 5 minutes, 37° C. Substrate conversion was measured by liquid chromatography/mass spectrometry/mass spectrometry (LC/MS/MS). Inhibition was calculated by curve fitting in Graph Pad Prism.

[3] = target: HDAC1 (Homo sapiens (Human), UniProt Q13547); assay: HDAC enzyme assay HDAC1; assay type: biochemical
[4] = target: HDAC2 (Homo sapiens (Human), UniProt Q92769); assay: HDAC enzyme assay HDAC2; assay type: biochemical
Experimental: Compounds for testing were diluted in DMSO to 50 fold the final concentration and a ten-point three-fold dilution series was made. The compounds were diluted in assay buffer (50 mM HEPES, pH 7.4, 100 mM KCl, 0.001% Tween-20, 0.05% BSA, 20 μM TCEP) to 6-fold their final concentration. The HDAC enzymes (purchased from BPS Biosciences) were diluted to 1.5-fold their final concentration in assay buffer. The tripeptide substrate and trypsin at 0.05 μM final concentration were diluted in assay buffer at 6-fold their final concentration. The final enzyme concentrations used in these assays were 3.3 ng/ml (HDAC1), 0.2 ng/ml (HDAC2) and 0.08 ng/ml (HDAC3). The final substrate concentrations used were 16 μM (HDAC1), 10 μM (HDAC2) and 17 μM (HDAC3).
Five μl of compounds and 20 μl of enzyme were added to wells of a black, opaque 384 well plate in duplicate. Enzyme and compound were incubated together at room temperature for 10 minutes. Five μl of substrate was added to each well, the plate was shaken for 60 seconds and placed into a Victor 2 microtiter plate reader. The development of fluorescence was monitored for 60 min and the linear rate of the reaction was calculated. The IC50 was determined using Graph Pad Prism by a four parameter curve fit.

[5] = target: HDAC3 (Homo sapiens (Human), UniProt O15379); assay: HDAC enzyme assay HDAC3; assay type: biochemical
Experimental: Compounds for testing were diluted in DMSO to 50 fold the final concentration and a ten-point three-fold dilution series was made. The compounds were diluted in assay buffer (50 mM HEPES, pH 7.4, 100 mM KCl, 0.001% Tween-20, 0.05% BSA, 20 μM TCEP) to 6-fold their final concentration. The HDAC enzymes (purchased from BPS Biosciences) were diluted to 1.5-fold their final concentration in assay buffer. The tripeptide substrate and trypsin at 0.05 μM final concentration were diluted in assay buffer at 6-fold their final concentration. The final enzyme concentrations used in these assays were 3.3 ng/ml (HDAC1), 0.2 ng/ml (HDAC2) and 0.08 ng/ml (HDAC3). The final substrate concentrations used were 16 μM (HDAC1), 10 μM (HDAC2) and 17 μM (HDAC3). Five μl of compounds and 20 μl of enzyme were added to wells of a black, opaque 384 well plate in duplicate. Enzyme and compound were incubated together at room temperature for 10 minutes. Five μl of substrate was added to each well, the plate was shaken for 60 seconds and placed into a Victor 2 microtiter plate reader. The development of fluorescence was monitored for 60 min and the linear rate of the reaction was calculated. The IC50 was determined using Graph Pad Prism by a four parameter curve fit. In Table 4 below, letter designations are defined as follows: […]

[6] = target: hERG (Homo sapiens (Human), UniProt Q12809); assay: hERG inhibition, whole-cell patch clamp; assay type: cell-based; conditions: HEK293 cells stably transfected with hERG, 34 °C, tail current
Experimental: For hERG inhibition assays, the cells used were HEK293 cells stably transfected with hERG (cell line obtained from Cytocentrics Inc. 3463 Magic Drive San Antonio, Tex. 78229). Composition of External Solution: NaCl, 137 mM; KCl, 4 mM; MgCl2, 1.0 mM; CaCl2, 1.8 mM; HEPES 10 mM; Dextrose 11 mM; Adjusted to a pH of 7.4 with NaOH. Composition of Internal Solution: KCl, 130.0 mM; MgCl2, 1.0 mM; HEPES, 5.0 mM; EGTA, 5.0 mM; NaCl 7.0 mM. Adjusted to a pH of 7.2 using KOH. Test Concentrations: 0.1, 1, 10, 100 μM. Vehicle: DMSO. Experiments were performed at 34+/−1° C. Current was recorded using the whole-cell patch clamp technique on the Cytopatch automated platform. hERG current was elicited with the following voltage protocol: hERG current amplitude was measured as the peak current at −50 mV (tail current). […] Each cell served as its own control. Data are presented as the IC50 calculated by non-linear regression analysis.

[7] = plasma, oral AUC to IV AUC, dose adjusted

Chain of HDAC1 (Q13547 whole entry): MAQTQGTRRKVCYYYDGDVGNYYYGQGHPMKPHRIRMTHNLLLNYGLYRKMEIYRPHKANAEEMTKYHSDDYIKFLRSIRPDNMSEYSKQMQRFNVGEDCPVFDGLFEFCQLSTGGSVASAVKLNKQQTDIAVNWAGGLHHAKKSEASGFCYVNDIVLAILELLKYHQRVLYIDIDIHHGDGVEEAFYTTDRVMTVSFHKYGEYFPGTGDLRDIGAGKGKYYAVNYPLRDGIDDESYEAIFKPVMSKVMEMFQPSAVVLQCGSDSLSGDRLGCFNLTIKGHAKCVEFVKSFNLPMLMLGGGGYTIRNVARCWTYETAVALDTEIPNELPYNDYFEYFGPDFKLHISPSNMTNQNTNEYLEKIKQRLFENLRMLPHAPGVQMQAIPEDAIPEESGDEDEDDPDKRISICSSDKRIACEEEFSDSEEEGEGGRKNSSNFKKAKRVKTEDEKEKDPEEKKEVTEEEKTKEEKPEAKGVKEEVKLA
Chain of HDAC3 (O15379 whole entry): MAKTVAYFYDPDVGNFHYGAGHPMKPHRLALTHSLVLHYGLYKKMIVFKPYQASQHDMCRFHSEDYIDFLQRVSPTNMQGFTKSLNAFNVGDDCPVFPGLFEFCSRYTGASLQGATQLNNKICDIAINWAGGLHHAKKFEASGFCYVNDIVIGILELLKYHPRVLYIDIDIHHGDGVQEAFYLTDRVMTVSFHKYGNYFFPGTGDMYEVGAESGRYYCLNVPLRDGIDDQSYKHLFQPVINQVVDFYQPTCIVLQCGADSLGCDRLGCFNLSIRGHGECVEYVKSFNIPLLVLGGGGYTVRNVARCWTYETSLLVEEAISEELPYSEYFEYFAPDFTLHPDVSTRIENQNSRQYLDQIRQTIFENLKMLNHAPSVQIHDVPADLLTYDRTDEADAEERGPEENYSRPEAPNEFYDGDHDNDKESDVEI
Chain of HDAC3 (Q9Y618 395-489 partner): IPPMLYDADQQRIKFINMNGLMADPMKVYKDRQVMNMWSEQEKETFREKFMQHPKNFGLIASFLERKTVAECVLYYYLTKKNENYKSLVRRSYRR
Chain of HDAC2 (Q92769 whole entry): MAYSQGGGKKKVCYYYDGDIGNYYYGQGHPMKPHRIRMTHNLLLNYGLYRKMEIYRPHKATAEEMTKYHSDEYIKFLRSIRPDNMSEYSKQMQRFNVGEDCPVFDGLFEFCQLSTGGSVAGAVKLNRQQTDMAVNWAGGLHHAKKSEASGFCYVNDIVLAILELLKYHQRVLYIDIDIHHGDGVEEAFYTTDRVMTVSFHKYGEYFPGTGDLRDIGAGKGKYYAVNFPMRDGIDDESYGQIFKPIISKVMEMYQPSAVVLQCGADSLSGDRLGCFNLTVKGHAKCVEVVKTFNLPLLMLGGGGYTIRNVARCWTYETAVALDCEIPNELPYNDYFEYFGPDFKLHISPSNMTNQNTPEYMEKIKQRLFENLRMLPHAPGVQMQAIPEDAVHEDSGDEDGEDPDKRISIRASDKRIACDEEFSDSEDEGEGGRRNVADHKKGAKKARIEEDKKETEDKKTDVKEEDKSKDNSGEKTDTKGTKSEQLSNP
Chain of hERG (Q12809 whole entry): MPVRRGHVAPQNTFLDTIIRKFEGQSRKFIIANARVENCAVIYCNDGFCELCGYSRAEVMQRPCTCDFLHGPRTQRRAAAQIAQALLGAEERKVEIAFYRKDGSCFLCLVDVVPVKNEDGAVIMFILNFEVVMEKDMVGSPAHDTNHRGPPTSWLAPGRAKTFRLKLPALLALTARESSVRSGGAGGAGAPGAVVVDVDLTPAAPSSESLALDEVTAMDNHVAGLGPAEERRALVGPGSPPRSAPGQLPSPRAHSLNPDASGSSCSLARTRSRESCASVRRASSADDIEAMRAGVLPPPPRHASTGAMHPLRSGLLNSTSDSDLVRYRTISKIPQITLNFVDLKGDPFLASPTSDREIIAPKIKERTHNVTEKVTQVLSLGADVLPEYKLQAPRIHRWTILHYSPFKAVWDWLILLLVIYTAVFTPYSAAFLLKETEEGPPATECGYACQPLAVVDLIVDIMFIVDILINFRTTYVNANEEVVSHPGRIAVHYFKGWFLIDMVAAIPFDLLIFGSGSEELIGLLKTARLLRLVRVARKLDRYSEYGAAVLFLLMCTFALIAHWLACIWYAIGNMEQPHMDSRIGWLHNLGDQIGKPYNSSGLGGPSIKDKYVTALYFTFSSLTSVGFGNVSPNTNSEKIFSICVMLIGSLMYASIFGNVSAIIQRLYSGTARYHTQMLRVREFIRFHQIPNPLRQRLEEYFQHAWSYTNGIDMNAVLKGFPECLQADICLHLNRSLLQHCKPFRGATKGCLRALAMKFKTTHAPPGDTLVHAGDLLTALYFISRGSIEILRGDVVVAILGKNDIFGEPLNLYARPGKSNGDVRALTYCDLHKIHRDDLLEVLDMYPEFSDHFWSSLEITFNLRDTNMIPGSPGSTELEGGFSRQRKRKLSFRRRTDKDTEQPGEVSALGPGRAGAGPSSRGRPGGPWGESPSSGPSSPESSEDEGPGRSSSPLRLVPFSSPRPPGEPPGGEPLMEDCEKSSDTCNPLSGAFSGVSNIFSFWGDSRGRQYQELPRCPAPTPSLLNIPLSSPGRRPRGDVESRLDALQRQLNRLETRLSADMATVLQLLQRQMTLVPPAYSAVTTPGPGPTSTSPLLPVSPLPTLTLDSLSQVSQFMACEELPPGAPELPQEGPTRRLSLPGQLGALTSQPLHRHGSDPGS

Structure (SMILES)	IC50 [3]	IC50 [4]	IC50 [5]	also measured
CN1CCN(c2ncc(C(=O)Nc3cc(-c4cccs4)ccc3N)s2)CC1 [Compound 030]				IV Clr. ([1]; IV 1 mg/kg, plasma): 8 mL/min/kg; PO AUC ([1]; PO 5 mg/kg, plasma): 15260 ng·h/mL; PO Cmax ([1]; PO 5 mg/kg, plasma): 944 ng/mL; PO T½ ([1]; PO 5 mg/kg, plasma): 12.8 h; F % ([1]; oral AUC to IV AUC, dose adjusted): 170%; IC50 [2]: > 10 µM
Nc1ccc(-c2ccc(F)cc2)cc1NC(=O)c1ccc2nc(N3CCNCC3)ccc2c1 [Compound 035]	< 0.01 µM	0.01 to 0.5 µM	0.01 to 0.5 µM	bioavailability [1, 7]: 70.5%; IV clearance ([1]; IV 1 mg/kg, plasma): 2.83 mL/min/kg; AUC ([1]; PO 5 mg/kg, plasma): 20200 ng·h/mL; Cmax ([1]; PO 5 mg/kg, plasma): 1870 ng/mL; half-life ([1]; PO 5 mg/kg, plasma): 4.4 h
Nc1ccccc1NC(=O)c1cc2ccc(N3CCNCC3)cc2cn1 [Compound 021]				bioavailability [1, 7]: 89.8%; IV clearance ([1]; IV 1 mg/kg, plasma): 94.3 mL/min/kg; AUC ([1]; PO 5 mg/kg, plasma): 763 ng·h/mL; Cmax ([1]; PO 5 mg/kg, plasma): 68 ng/mL; half-life ([1]; PO 5 mg/kg, plasma): 3.2 h; IC50 [6]: 4.2 µM
CN1CCN(c2ccc3cc(C(=O)Nc4cc(-c5ccco5)ccc4N)ncc3c2)CC1 [Compound 029]				IC50 [6]: 5.2 µM
Nc1ccc(-c2ccccc2)cc1NC(=O)c1ccc(N2CCNCC2)nc1 [Compound 006]				IC50 [6]: 5.1 µM; IC50 [2]: > 10 µM
Nc1ccc(-c2ccccn2)cc1NC(=O)c1ccc(N2CCNCC2)nc1 [Compound 073]	0.01 to 0.5 µM	0.01 to 0.5 µM	> 0.5 µM	
Nc1ccc(-c2ccncc2)cc1NC(=O)c1nc(N2CCNCC2)cs1 [Compound 057]	> 0.5 µM	0.01 to 0.5 µM	> 0.5 µM	
Nc1ccc(-c2cccc(F)c2)cc1NC(=O)c1ccc(N2CCNCC2)nc1 [Compound 077]	0.01 to 0.5 µM	0.01 to 0.5 µM	0.01 to 0.5 µM	
Nc1ccc(-c2ccco2)cc1NC(=O)c1ccc(N2CCNCC2)s1 [Compound 065]	< 0.01 µM	0.01 to 0.5 µM	0.01 to 0.5 µM	
CN1CCN(c2ccc(C(=O)Nc3cc(-c4ccoc4)ccc3N)cn2)CC1 [Compound 075]	< 0.01 µM	0.01 to 0.5 µM	0.01 to 0.5 µM	
Nc1ccc(-c2ccncc2)cc1NC(=O)c1cnc(N2CCNCC2)cn1 [Compound 089]	0.01 to 0.5 µM	0.01 to 0.5 µM	0.01 to 0.5 µM	
Nc1ccc(-c2ccc(F)cc2)cc1NC(=O)c1cnc(N2CCNCC2)o1 [Compound 063]	> 0.5 µM	> 0.5 µM	> 0.5 µM	
Nc1ccc(-c2cccs2)cc1NC(=O)c1cnc(N2CCNCC2)cn1 [Compound 040]	< 0.01 µM	< 0.01 µM	0.01 to 0.5 µM	bioavailability [1, 7]: 151%; IV clearance ([1]; IV 1 mg/kg, plasma): 26.7 mL/min/kg; AUC ([1]; PO 5 mg/kg, plasma): 3340 ng·h/mL; Cmax ([1]; PO 5 mg/kg, plasma): 211 ng/mL; half-life ([1]; PO 5 mg/kg, plasma): 16.7 h
Nc1ccc(-c2ccncc2)cc1NC(=O)c1cnc2cc(N3CCNCC3)ccc2c1 [Compound 026]				IC50 [6]: > 100 µM
Nc1ccc(-c2ccccn2)cc1NC(=O)c1ccc(N2CCNCC2)cn1 [Compound 081]	0.01 to 0.5 µM	0.01 to 0.5 µM	> 0.5 µM	
Nc1ccc(-c2cc(F)cc(F)c2)cc1NC(=O)c1ccc(N2CCNCC2)cn1 [Compound 084]	> 0.5 µM	> 0.5 µM	> 0.5 µM	
CN1CCN(c2ccc(C(=O)Nc3cc(-c4ccco4)ccc3N)nc2)CC1 [Compound 082]	< 0.01 µM	0.01 to 0.5 µM	0.01 to 0.5 µM	
